The text below walks through data of patent EP0085283A1, “Pyroglutamyl-tryptophan derivatives, process for their preparation and their therapeutic applications” (Società Italo-Britannica L. Manetti - H. Roberts & C., priority 1981, dated 1983).

Structures are written as SMILES.

Type in all cases: in vivo
Test [1] concerns male rats of Wistar strain. In words: Acquisition of shuttle-box active avoidance behavior (single session test). As to conditions: 1 h prior to testing. The method, then: (§1) Behavioral effects of DL-pyroglutamyl-tryptophan (pGlu-Trp) have been studied in male rats of Wistar strain (purchased from Morini, Italy), weighing 130+10 g at the onset of experiments. Animals were kept under light- dark cycle (lights on between 8.00 and 20.00) with standard food and water available ad lib. Animals were injected intraperitoneally (ip) with 10 or 100 mg/kg of pGlu-Trp dissolved in a solution of NaHCO3 1 N and adjusted at pH 7.4 with HC1 0.1 N. Control animals received injection of the vehicle alone. Injections were performed 1 h prior to the behavioral testing. The animals were used only once for the behavioral experiments.
Acquisition of active avoidance behavior was studied in a single session test. The rats were trained to avoid the unconditioned stimulus (US) of a scrambled electrical footshock (0.20 mA) delivered through the grid floor. The conditioned stimulus (CS) was a buzzer presented for 5 sec prior to the US. If no escape occurred within 20 sec of CS/US presentation, the shock was terminated. A maximum of 30 conditioning trials were given with a variable intertrial interval averaging 60 sec. The learning criterion was 5 consecutive conditioned avoidance responses (CARs). For those animals that reached this criterion in less than 30 trials, the remaining trials up to a total of 30 were considered as lARs. Indexes of avoidance behavior were the total number of CARs and the number of learners.

Test [2] relates to male rats of Wistar strain. In words: Open field behavior in a circular open field arena. The note with it: 10 mg/kg ip. The method, then: as §1
Open field behavior was studied in a circular open field arena. Ambulation (number of floor units entered), rearing, grooming and defecation scores were recorded during a 5-min observation session.

The test system of test [3] is male rats of Wistar strain. In words: Hot plate test for analgesia. The note with it: 10 mg/kg ip. Here is the method:
as §1
Hot plate test for analgesia was studied with a circular hot plate ([…]) where the animals were placed singularly.
The latency in sec to the first behavioral reaction to hot pain (licking of paw) was recorded.
In general terms: Hot-plate and tail-flick tests time the reaction to a heat stimulus.

Regarding `O=C1CC[C@@H](C(=O)N[C@@H](Cc2c[nH]c3ccccc23)C(=O)O)N1` (racemic) [pGlu-Trp, pyroglutamyltryptophan], the “total number of CARs” value in test [1] (10 mg/kg ip, controls 14.8+1.50, difference not significant) was 12.7+1.99. In test [1] (100 mg/kg ip, controls 14.2+1.47, p<0.02), the “number of CARs” value is 19.0+1.21. This compound also showed a percentage of learners in test [1] (100 mg/kg ip, controls 66.6%) of 90.9%. The defecation boli result in test [2] is recorded as “decreased”. The “Ambulation (number of floor units entered)” value in test [2] (5-min observation session, controls 94.5+4.7) is 78.5+4.4. Further, in test [2] (treated versus control rats), the grooming entry is on record as “No difference” and the rearing result was “No difference”. Also, the “analgesic effect (latency to licking of paw)” value in test [3] is reported as “No analgesic effect”.
